Patent US7812053B2, “4-((phenoxyalkyl)thio)-phenoxyacetic acids and analogs” (Janssen Pharmaceuticals NV, priority 2004, dated 2010)
Several values for one entry are separate records, joined by “and”; a condition that tells them apart may be missing. Equal values may be shown once.

Tests used:
[1] = biological target: T1, PPARδ ligand binding domain fused to the yeast GAL4 DNA binding domain (Homo sapiens, UniProt Q03181); assay: Transfection assay for PPAR receptors (GAL4-LBD luciferase reporter), PPAR delta; format: cell-based; details: HEK293 cells, GAL4 (UAS) luciferase reporter, 18-24 hrs; multiple values = multiple measurements
T1 construct: expressed in transfected cells; host or cells: HEK293
T1 sequence (Q03181 211-439 limits assumed): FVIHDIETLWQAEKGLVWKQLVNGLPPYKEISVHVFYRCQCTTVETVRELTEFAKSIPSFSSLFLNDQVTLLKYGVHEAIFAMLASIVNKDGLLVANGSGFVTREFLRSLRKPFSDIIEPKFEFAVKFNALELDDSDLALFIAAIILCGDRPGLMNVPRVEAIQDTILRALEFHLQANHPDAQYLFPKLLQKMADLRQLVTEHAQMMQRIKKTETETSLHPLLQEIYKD
Description: (§1) Transfection Assay Method for PPAR Receptors
(§2) HEK293 cells were grown in DMEM/F12 medium supplemented with 10% FBS and glutamine (Invitrogen) and incubated in a 5% CO2 incubator at 37° C. The cells were co-transfected using DMRIE-C reagent (Invitrogen) in serum free medium (Opti-MEM, Invitrogen) with two mammalian expression plasmids, one containing the DNA sequence coding for the ligand binding domains of either PPARα, γ or δ fused to the yeast GAL4 DNA binding domain and the other containing the promoter sequence of the yeast GAL4 (UAS) fused to the firefly luciferase cDNA reporter. The next day, the medium was changed to DMEM/F12 medium supplemented with 5% charcoal treated serum (Hyclone) and glutamine. After 6 hrs the cells were trypsinized and seeded at a density of 50,000 cells/well into 96 well plates and incubated overnight as above. The cells were then treated with test compounds or vehicle and incubated for 18-24 hrs as above. Luciferase reporter activity was measured using the Steady-Glo Luciferase Assay Kit from Promega. DMRIE-C Reagent was purchased from GIBCO Cat. No. 10459-014. OPTI-MEM I Reduced Serum Medium was purchased from GIBCO (Cat. No. 31985). Steady-Glo Luciferase Assay Kit was purchased from Promega (Part# E254B).
(§3) A variety of example compounds have been made and tested, with a range of in vitro results. Below are representative compounds and data; in some cases, where multiple EC50's are shown, multiple measurements were taken. Naturally, different compounds in Formula (I) may have not have activities identical to any one compound below.

[2] = biological target: T2, PPARγ ligand binding domain fused to the yeast GAL4 DNA binding domain (Homo sapiens, UniProt P37231); assay: Transfection assay for PPAR receptors (GAL4-LBD luciferase reporter), PPAR gamma; format: cell-based; details: HEK293 cells, GAL4 (UAS) luciferase reporter, 18-24 hrs
T2 construct: expressed in transfected cells; host or cells: HEK293
T2 sequence (P37231 238-503 limits assumed): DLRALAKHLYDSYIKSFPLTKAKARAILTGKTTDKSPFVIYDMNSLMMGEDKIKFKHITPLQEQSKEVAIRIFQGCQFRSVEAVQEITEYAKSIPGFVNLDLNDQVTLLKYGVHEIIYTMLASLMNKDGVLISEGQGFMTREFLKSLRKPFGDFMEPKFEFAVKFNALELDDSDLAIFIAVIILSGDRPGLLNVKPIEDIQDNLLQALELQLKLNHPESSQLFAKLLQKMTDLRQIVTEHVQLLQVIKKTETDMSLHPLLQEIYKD
Description: as §1, §2
A variety of example compounds have been made and tested, with a range of in vitro results. […]

[3] = biological target: T3, PPARα ligand binding domain fused to the yeast GAL4 DNA binding domain (Homo sapiens, UniProt Q07869); assay: Transfection assay for PPAR receptors (GAL4-LBD luciferase reporter), PPAR alpha; format: cell-based; details: HEK293 cells, GAL4 (UAS) luciferase reporter, 18-24 hrs
T3 construct: expressed in transfected cells; host or cells: HEK293
T3 sequence (Q07869 239-466 limits assumed): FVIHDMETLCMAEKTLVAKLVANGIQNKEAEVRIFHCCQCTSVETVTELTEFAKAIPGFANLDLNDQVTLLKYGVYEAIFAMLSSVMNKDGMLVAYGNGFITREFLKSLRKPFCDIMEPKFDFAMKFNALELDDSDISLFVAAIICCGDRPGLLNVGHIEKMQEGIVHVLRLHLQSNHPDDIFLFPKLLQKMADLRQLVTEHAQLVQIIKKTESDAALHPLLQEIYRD
Description: as §1, §2, §3

[4] = test system: differentiated THP-1 monocytes; details: cited from earlier work

EC50 [1]	EC50 [2] [nM]	EC50 [3] [nM]	Compound	ABCA1 mRNA expression [4]	cholesterol efflux [4]
34 nM and 27.5 nM	565	537	CCOC(COc1ccc(C(F)(F)F)cc1)CSc1ccc(OC(C)(C)C(=O)O)c(C)c1 (stereo not shown) [Compound 3, 2-{4-[2-Ethoxy-3-(4-trifluoromethyl-phenoxy)-propylsulfanyl]-2-methyl-phenoxy}-2-methyl-propionic acid]	–	–
–	–	–	Cc1cc(SCc2sc(-c3ccc(C(F)(F)F)cc3)nc2C)ccc1OCC(=O)O [GW501516]	induced ABCA1 mRNA expression	enhanced cholesterol efflux
13.8 nM and 14.9 nM	–	548	CCC(COc1ccc(C(F)(F)F)cc1)CSc1ccc(OC(C)C(=O)O)c(C)c1 (stereo not shown) [Compound 1, 2-{2-Methyl-4-[2-(4-trifluoromethyl-phenoxymethyl)-butylsulfanyl]-phenoxy}-propionic acid]	–	–
9.1 nM and 11.1 nM	278	237	CCC(COc1ccc(C(F)(F)F)cc1)CSc1ccc(OC(C)(C)C(=O)O)c(C)c1 (stereo not shown) [Compound 2, 2-Methyl-2-{2-methyl-4-[2-(4-trifluoromethyl-phenoxymethyl)-butylsulfanyl]-phenoxy}-propionic acid]	–	–
